From article PMC11901902, “Design, Synthesis, and Cytotoxicity Evaluation of Novel Indolin-2-One Based Molecules on Hepatocellular Carcinoma HepG2 Cells as Protein Kinase Inhibitors” (Molecules, 2025)

Key:
[1] = test system: HepG-2 cells; test: MTT cytotoxicity assay on HepG-2 cells; format: cell-based, human; details: for fold higher cytotoxicity than indirubin: HepG-2 cells, relative to indirubin; for viability at 1.25 µM / viability at 2.5 µM / viability at 5 µM / viability at 10 µM / viability at 20 µM / viability at 40 µM / viability at 80 µM / viability at 160 µM / IC50: Homo sapiens, HepG2; for viability at 1.25 µM: HepG-2, 1.25 µM; for viability at 1.25 µM / viability at 2.5 µM / viability at 5 µM / viability at 10 µM / viability at 20 µM / viability at 40 µM / viability at 80 µM / viability at 160 µM: Table S1; for viability at 2.5 µM: HepG-2, 2.5 µM; for viability at 5 µM: HepG-2, 5 µM; for viability at 10 µM: HepG-2, 10 µM; for viability at 20 µM: HepG-2, 20 µM; for viability at 40 µM: HepG-2, 40 µM; for viability at 80 µM: HepG-2, 80 µM; for viability at 160 µM: HepG-2, 160 µM; for IC50: MTT, 24 h treatment, mean of three experiments ± SEM
Protocol: Cytotoxic activity of the synthesized compounds was evaluated against HepG-2 and MCF-7 cancer cell lines using the MTT assay. The tested cell lines were obtained from the American Type Culture Collection (ATCC, […], USA) through the Tissue Culture Unit, The Egyptian Organization for Biological Products and Vaccines (Vacsera, Giza, Egypt). Indirubin, chemicals, and solvents were purchased from Sigma-Aldrich (St. Louis, MO, USA). The cells were grown on RPMI-1640 medium supplemented with 10% inactivated fetal calf serum and 50 µg/mL gentamycin. The cells were maintained at 37 °C in a humidified atmosphere with 5% CO2 and were sub-cultured two to three times per week. For antitumor assays, the tumor cell lines were suspended in the medium at concentration 5 × 10^4 cell/well in Corning® 96-well tissue culture plates (Corning, Corning, NY, USA), then incubated for 24 h. The tested molecules were then added to 96-well plates (six replicates) to achieve six concentrations for each compound. Six vehicle controls with media or 0.5% DMSO were run for each 96-well plate as a control. After incubating for 24 h, the numbers of viable cells were determined by the MTT test. Briefly, the media was removed from the 96 well plate and replaced with 100 µL of fresh culture RPMI 1640 medium without phenol red then 10 µL of the 12 mM MTT stock solution (5 mg of MTT in 1 mL of PBS) to each well including the untreated controls. The 96-well plates were then incubated at 37 °C and 5% CO2 for 4 h. An 85 µL aliquot of the media was removed from the wells, and 50 µL of DMSO was added to each well, mixed thoroughly with the pipette, and incubated at 37 °C for 10 min. Then, the optical density was measured at 590 nm with the microplate reader (SunRise, TECAN, Inc., Morrisville, NC, USA) to determine the number of viable cells, and the percentage of viability was calculated as […], where ODt is the mean optical density of wells treated with the tested sample and ODc is the mean optical density of untreated cells. The relation between surviving cells and drug concentration was plotted to obtain the survival curve of each tumor cell line after treatment with the specified compound. […] Each concentration was repeated four times.

[2] = molecular target: T1, CDK-4 (Homo sapiens, UniProt P11802); test: Kinase-Glo Plus luminescence kinase inhibition assay, CDK-4; format: biochemical; details: 10 µM ATP, 30 °C, 40 min; mean ± SEM
T1 construct: purchased BPS Bioscience 79674
Protocol: The enzyme inhibition assay for the tested molecules was performed at BPS Bioscience Corporation, San Diego, CA, USA. The following materials served as the enzyme sources, Poly (Glu, Tyr) sodium salt (4:1, Glu:Tyr) (Sigma#P7244) served as the standardized substrate, and the Kinase-Glo Plus Luminescence kinase assay kit (Promega # V3772) was used. […] Glo Plus luminescence kinase assay kits. The assays were performed using Kinase-Glo Plus luminescence (Promega Corporation, Madison, WI, USA).
The tested molecules 9, 20, and indurbin were diluted to 100 µL in DMSO (10%), and 5 µL of the solution was added to a 50-µL enzyme reaction until the final concentration of DMSO was 1% in all of reactions. The enzymatic reactions were conducted at 30 °C for 40 min. The reaction mixture contained enzyme substrate and respective kinases. After the enzymatic reaction, 50 µL of enzyme-Glo Plus luminescence […] assay solution (Promega) was added to each reaction, and the plate was incubated for 5 min at room temperature. The luminescence signal was measured using a BioTek Synergy 2 microplate reader. The luminescence data were analyzed using the computer software GraphPad Prism. The difference between luminescence intensities in the absence of enzyme (Lut) and in the presence of enzyme (Luc) was defined as 100% activity (Lut − Luc). […] The IC50 value was determined using GraphPad Prism software. […]
Glo Plus luminescence kinase assay kits were used in these assays. […] The assay measures kinase activity by quantitating the amount of ATP remaining in the solution following kinase reaction. […] After the enzymatic reaction, 50 µL of Kinase-Glo Plus Luminescence kinase assay solution (Promega) was added to each reaction, and the plate was incubated for 5 min at room temperature. The luminescence signal was measured using a BioTek Synergy 2 microplate reader. […] The luminescence data were analyzed using the Graphpad Prism software.

[3] = test system: Bax; test: ELISA of Bax in treated HepG-2 cells; format: cell-based, human; details: HepG-2, compound at its IC50; ± S.E.M; control 18.93±11.71
Protocol: HepG2 cells were cultured in RPMI 10% + 5%FBS penicillin/streptomycin and were incubated at a humidity 5% CO2 and maintained at 37 °C. […] HepG2 cells were cultured as a monolayer in T-25 flasks and were seeded to attain 30% confluency prior to treatment. The main 100 mM stock dissolved in DMSO was diluted with the cell culture medium in order to reach the previously determined IC50 concentration of each of the three preparations. After that, HepG2 cells were collected via trypsinization and centrifuged at 10,000 rpm. The pellet was then rinsed with PBS and lysed in RIPA lysis buffer at 4 °C for 45 min, then centrifuged at 14,000 rpm for 20 min to remove the cellular debris. Lysates were then collected and stored at […] for protein determination. The levels of p53, p21, Fas-L, Bax, Bcl-2, and caspase 3/7 were assessed using the human P53 ELISA kit (Catalog No. ABIN6962151), P21 ELISA kit (Catalog No. ABIN6966175), Human Apoptosis Ligand (FAS-L), Bax ELISA kit, Human Factor-Related. Bcl-2 ELISA kit ELISA kit, and caspase3/7 ELISA kit (Elabscience Biotechnology Co., Wuhan, Hubei, China). The procedure of the used kits was done according to the manufacturer’s instructions. Briefly, equal amounts of cell lysates were loaded and then probed with specific antibodies. The samples were measured at 450 nm in ROBONEK P2000 ELISA reader. […]

[4] = test system: caspase 3/7; test: ELISA of caspase 3/7 in treated HepG-2 cells; format: cell-based, human; details: for increase of caspase 3/7 levels compared with untreated cells: HepG-2, compound at its IC50, 24 h; for Concentration of caspases 3/7: HepG-2, compound at its IC50, ± S.E.M, control 11.90±1.71
Protocol: HepG2 cells were cultured in RPMI 10% + 5%FBS penicillin/streptomycin and were incubated at a humidity 5% CO2 and maintained at 37 °C. […] HepG2 cells were cultured as a monolayer in T-25 flasks and were seeded to attain 30% confluency prior to treatment. The main 100 mM stock dissolved in DMSO was diluted with the cell culture medium in order to reach the previously determined IC50 concentration of each of the three preparations. After that, HepG2 cells were collected via trypsinization and centrifuged at 10,000 rpm. The pellet was then rinsed with PBS and lysed in RIPA lysis buffer at 4 °C for 45 min, then centrifuged at 14,000 rpm for 20 min to remove the cellular debris. Lysates were then collected and stored at […] for protein determination. The levels of p53, p21, Fas-L, Bax, Bcl-2, and caspase 3/7 were assessed using the human P53 ELISA kit (Catalog No. ABIN6962151), P21 ELISA kit (Catalog No. ABIN6966175), Human Apoptosis Ligand (FAS-L), Bax ELISA kit, Human Factor-Related. Bcl-2 ELISA kit ELISA kit, and caspase3/7 ELISA kit (Elabscience Biotechnology Co., Wuhan, Hubei, China). The procedure of the used kits was done according to the manufacturer’s instructions. Briefly, equal amounts of cell lysates were loaded and then probed with specific antibodies. The samples were measured at 450 nm in ROBONEK P2000 ELISA reader. The analysis was confirmed with three different sets of extracts. All experiments were done in triplicate (Tables S6–S9).

T1 sequence (P11802 whole entry): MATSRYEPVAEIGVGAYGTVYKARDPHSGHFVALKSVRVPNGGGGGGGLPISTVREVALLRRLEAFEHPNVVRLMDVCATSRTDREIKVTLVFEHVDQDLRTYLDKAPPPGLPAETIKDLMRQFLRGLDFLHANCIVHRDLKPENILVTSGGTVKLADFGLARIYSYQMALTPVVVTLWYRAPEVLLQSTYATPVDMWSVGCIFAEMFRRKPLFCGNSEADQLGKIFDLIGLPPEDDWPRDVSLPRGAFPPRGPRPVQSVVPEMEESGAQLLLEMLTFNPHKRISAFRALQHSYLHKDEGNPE
T1 sequence (P30281 whole entry partner): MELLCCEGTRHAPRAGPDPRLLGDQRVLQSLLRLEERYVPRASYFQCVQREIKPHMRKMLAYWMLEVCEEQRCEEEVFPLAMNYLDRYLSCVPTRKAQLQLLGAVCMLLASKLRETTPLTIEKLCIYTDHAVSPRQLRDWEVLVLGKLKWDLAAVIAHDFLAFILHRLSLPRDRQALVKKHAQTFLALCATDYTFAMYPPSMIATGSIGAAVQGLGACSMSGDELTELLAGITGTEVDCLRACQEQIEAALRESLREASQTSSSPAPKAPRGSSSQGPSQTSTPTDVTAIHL

| Compound | fold higher cytotoxicity than indirubin [1] | viability at 1.25 µM [1] [%] | viability at 2.5 µM [1] [%] | viability at 5 µM [1] [%] | viability at 10 µM [1] [%] | viability at 20 µM [1] [%] | viability at 40 µM [1] [%] | viability at 80 µM [1] [%] | viability at 160 µM [1] [%] | IC50 [1] [µM] | IC50 [2] [nM] | Concentration of Bax [3] [pg/mL] | increase of caspase 3/7 levels compared with untreated cells [4] [fold] | Concentration of caspases 3/7 [4] [pg/mL] |
| --- | --- | --- | --- | --- | --- | --- | --- | --- | --- | --- | --- | --- | --- | --- |
| O=C1Nc2ccc(Cl)cc2C1=Nc1ccc(-c2nc3ccccc3c(=O)[nH]2)cc1 [Compound 20, 2-[4-(5-Chloro-2-oxo-1,2-dihydro-indol-3-ylideneamino)-phenyl]-3H-quinazolin-4-one] | 2.2–2.7 fold | 58.2 ± 3.3 | 52.1 ± 2.9 | 36.7 ± 1.2 | 29.4 ± 2.5 | 21.7 ± 2 | 18.4 ± 1.8 | 15.2 ± 1.5 | 11.8 ± 1.3 | 3.08 ± 0.35 | 244 ± 12.2 | 108.32 ± 9.82 | 3.2 | 37.32 ± 4.82 |
| O=C1Nc2ccc(Cl)cc2C1=Nc1ccc2nc[nH]c(=O)c2c1 [Compound 9, 6-(5-Chloro-2-oxo-1,2-dihydro-indol-3-ylideneamino)-3H-quinazolin-4-one] | 2.2–2.7 fold | 61.3 ± 3.6 | 54.4 ± 3.1 | 34.8 ± 0.9 | 28.6 ± 2.1 | 23.1 ± 2.4 | 19.6 ± 2 | 16.3 ± 1.7 | 12.9 ± 1.5 | 2.53 ± 0.11 | 36.4 ± 4.52 | 88.12 ± 5.27 | 5.3 | 62.13 ± 5.27 |
